The text below walks through data of patent US6548510B1, “Pharmaceutical composition containing deoxypeganine for the treatment of nicotine dependence” (priority 1999, dated 2003).

SMILES strings stand for the structures.

One data set has as its system smokers. The data set can be described thus: Influence of deoxypeganine on the smoking of healthy subjects. The format is in vivo, human. The settings on record: for Cigarette consumption after administration of 50 mg of deoxypeganine HCl/day: subject (smoker), 50 mg/day, administration period 24 hours. The method, then:
Example: Influence of deoxypeganine on the smoking of healthy subjects
In the context of the testing of a deoxypeganine-containing formulation which releases about 50 mg of deoxypeganine hydrochloride per day in vivo, in addition to other subjects two smokers were also used as test subjects, as “smoking” was not an exclusion criterion in the testing. […] The administration period was 24 hours.

Another data set concerns the target acetylcholinesterase (Homo sapiens, UniProt P22303). The settings on record: cited from earlier work.
The subject of the next data set is monoamine oxidase. To be noted: cited from earlier work.
For data set [1] the following is noted: in contrast to neostigmine; cited from earlier work.

Sequence of acetylcholinesterase (P22303 32-614, species assumed): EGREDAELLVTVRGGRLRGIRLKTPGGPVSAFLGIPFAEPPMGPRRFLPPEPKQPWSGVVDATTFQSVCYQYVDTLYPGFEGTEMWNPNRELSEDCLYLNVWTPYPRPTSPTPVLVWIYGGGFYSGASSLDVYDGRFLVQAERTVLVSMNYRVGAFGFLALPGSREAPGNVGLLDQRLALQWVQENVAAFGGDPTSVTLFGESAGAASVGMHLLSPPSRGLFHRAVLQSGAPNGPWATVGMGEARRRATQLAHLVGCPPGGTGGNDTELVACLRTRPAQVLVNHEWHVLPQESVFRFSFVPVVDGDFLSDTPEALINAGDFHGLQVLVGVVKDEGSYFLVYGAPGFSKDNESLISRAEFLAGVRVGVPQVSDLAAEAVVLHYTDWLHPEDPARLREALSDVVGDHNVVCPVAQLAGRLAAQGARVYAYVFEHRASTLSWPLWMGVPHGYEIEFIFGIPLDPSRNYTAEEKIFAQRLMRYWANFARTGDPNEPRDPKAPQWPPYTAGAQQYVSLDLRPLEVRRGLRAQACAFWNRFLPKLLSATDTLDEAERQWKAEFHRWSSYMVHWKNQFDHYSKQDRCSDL

Consider `Cl.c1ccc2c(c1)CN1CCCC1=N2` [deoxypeganine HCl, deoxypeganine hydrochloride], for which the “Cigarette consumption after administration of 50 mg of deoxypeganine HCl/day” value is given as 3 cigarettes in the data set with smokers (without deoxypeganine 22 cigarettes/day (mean of n = 3)) and 6 cigarettes in the data set on smokers (without deoxypeganine 41 cigarettes/day (mean of n = 5)). Further, the Desire for cigarettes result in the data set on smokers (two smokers, formulation releasing about 50 mg of deoxypeganine hydrochloride per day, 24 hours) is reported as “obviously suppressed”.
As to `c1ccc2c(c1)CN1CCCC1=N2` [deoxypeganine], the “Reduction in cigarette consumption” value with smokers (single administration of 50 mg/day) was “considerable reduction”. Moreover, the “Cholinesterase inhibitory action in comparison to physostigmine” value on acetylcholinesterase (based on the unit of weight) is recorded as “somewhat lower”. Further, the Acetylcholinesterase inhibition result on acetylcholinesterase (reversibly acting cholinesterase inhibitor) is listed as “inhibits”. The Monoamine oxidase inhibition entry in the data set on monoamine oxidase is listed as “inhibits”. In data set [1], the Blood-brain barrier crossing result is “crosses the blood-brain barrier”.
